Tested on: CytoD-treated RBC
Test: Recovery of CytoD-treated RBCs (Wright Giemsa stain and immunofluorescence)
Type: cell-based, human
Conditions: CytoD 3 h, immunofluorescence
Protocol: Cytochalasin D (CytoD) is known to inhibit actin polymerization or depolymerization at barbed ends. The recovery effects of Wnts CM in RBCs was tested after incubation with CytoD in order to evaluate the potential effect of Wnt3/5 on polymerized actin in RBCs (FIGS. 12A-B). As show in FIGS. 12A-B, RBCs incubated with a medium containing Cyto D for 3 h, and then with Wnt 3/5 CM (in the absence of CytoD) for 6 h, were stained using two different methods. […] (FIG. 12B).

Compound: C=C1[C@@H](C)[C@H]2[C@H](Cc3ccccc3)NC(=O)[C@]23[C@H](OC(C)=O)/C=C/[C@@](C)(O)C(=O)[C@@H](C)C/C=C/[C@H]3[C@@H]1O [CytoD, Cytochalasin D]
- actin state in RBCs after CytoD treatment: aggregates of cytoplasm actin

— US20180360025A1, “ARTICLE OF MANUFACTURE AND METHODS FOR INCREASING SURVIVAL OF RED BLOOD CELLS” (Ramot at Tel-Aviv University Ltd., priority 2015, published 2018)
